{"source": "ChEMBL document CHEMBL1134446", "about": "“Polyamine analogue antidiarrheals: a structure-activity study” (J Med Chem, 2001)", "key": {"Canis familiaris [1]": {"system": "Canis familiaris", "test": "Spermine Distribution in kidney was determined after DESPM dosing of 8.0 mg/kg/day for 4.5 days in dog(cu dose-52.4) and sacrificed at 10 days PLD(cu dose-36 mg/kg)", "format": "ADME, organism-based, Canis lupus familiaris", "details": "in vivo, 240 h"}, "Canis familiaris [2]": {"system": "Canis familiaris", "test": "Spermine Distribution in liver was determined after DESPM dosing of 4 mg/kg/day for 13 days in dog(cu dose-52.4) and sacrificed at 75 days PLD(cu dose-52 mg/kg)", "format": "ADME, organism-based, Canis lupus familiaris", "details": "in vivo, 1800 h"}, "Canis familiaris [3]": {"system": "Canis familiaris", "test": "Spermidine Distribution in kidney was determined after DESPM dosing of 1.87 mg/kg/day for 28 days in dog(cu dose-52.4) and sacrificed at 75 days PLD(cu dose-52.4 mg/kg)", "format": "ADME, organism-based, Canis lupus familiaris", "details": "in vivo, 1800 h"}, "Canis familiaris [4]": {"system": "Canis familiaris", "test": "Spermidine Distribution in kidney was determined after DESPM dosing of 6.0 mg/kg/day for 4.5 days in dog(cu dose-52.4) and sacrificed at 10 days PLD(cu dose-27 mg/kg)", "format": "ADME, organism-based, Canis lupus familiaris", "details": "in vivo, 240 h"}, "Canis familiaris [5]": {"system": "Canis familiaris", "test": "Spermine Distribution in liver was determined after DESPM dosing of 8.0 mg/kg/day for 4.5 days in dog(cu dose-52.4) and sacrificed at 75 days PLD(cu dose-36 mg/kg)", "format": "ADME, organism-based, Canis lupus familiaris", "details": "in vivo, 1800 h"}, "Canis familiaris [6]": {"system": "Canis familiaris", "test": "MESPM/MEHSPH Distribution in liver was determined after DESPM dosing of 8.0 mg/kg/day for 4.5 days in dog(cu dose-52.4) and sacrificed at 10 days PLD(cu dose-36 mg/kg)", "format": "ADME, organism-based, Canis lupus familiaris", "details": "in vivo, 240 h"}, "Canis familiaris [7]": {"system": "Canis familiaris", "test": "Spermidine Distribution in liver was determined after DESPM dosing of 4 mg/kg/day for 13 days in dog(cu dose-52.4) and sacrificed at 10 days PLD(cu dose-52 mg/kg)", "format": "ADME, organism-based, Canis lupus familiaris", "details": "in vivo, 240 h"}, "Canis familiaris [8]": {"system": "Canis familiaris", "test": "Spermidine Distribution in liver was determined after DESPM dosing of 4 mg/kg/day for 13 days in dog(cu dose-52.4) and sacrificed at 75 days PLD(cu dose-52 mg/kg)", "format": "ADME, organism-based, Canis lupus familiaris", "details": "in vivo, 1800 h"}, "Canis familiaris [9]": {"system": "Canis familiaris", "test": "Spermine Distribution in kidney was determined after DESPM dosing of 1.87 mg/kg/day for 28 days in dog(cu dose-52.4) and sacrificed at 75 days PLD(cu dose-52.4 mg/kg)", "format": "ADME, organism-based, Canis lupus familiaris", "details": "in vivo, 1800 h"}, "Canis familiaris [10]": {"system": "Canis familiaris", "test": "MESPM/MEHSPH Distribution in kidney was determined after DESPM dosing of 4 mg/kg/day for 13 days in dog(cu dose-52.4) and sacrificed at 10 days PLD(cu dose-52 mg/kg)", "format": "ADME, organism-based, Canis lupus familiaris", "details": "in vivo, 240 h"}, "Rattus norvegicus [11]": {"system": "Rattus norvegicus", "test": "Percent reduction was determined by using the ratio of mean of treated animal to that of control animal at a dose of 14.3 mg/kg", "format": "functional"}, "Rattus norvegicus [12]": {"system": "Rattus norvegicus", "test": "Percent reduction was determined by using the ratio of mean of treated animal to that of control animal at a dose of 9.4 mg/kg", "format": "functional"}, "Rattus norvegicus [13]": {"system": "Rattus norvegicus", "test": "Stool output of rat over the 6-h collection period when a dose of 0 mg/kg (0 administered", "format": "functional"}, "Canis familiaris [14]": {"system": "Canis familiaris", "test": "putrescine Distribution in liver was determined after DESPM dosing of 6.0 mg/kg/day for 4.5 days in dog(cu dose-52.4) and sacrificed at 75 days PLD(cu dose-27 mg/kg)", "format": "ADME, organism-based, Canis lupus familiaris", "details": "in vivo, 1800 h"}, "Canis familiaris [15]": {"system": "Canis familiaris", "test": "putrescine putrescine Distribution in kidney was determined after DEHSPM dosing of 2.0 mg/kg/day for 29 days in dog(cu dose-52.4) and sacrificed at 10 days PLD(cu dose-58 mg/kg)", "format": "ADME, organism-based, Canis lupus familiaris", "details": "in vivo, 240 h"}, "Canis familiaris [16]": {"system": "Canis familiaris", "test": "Spermidine Distribution in kidney was determined after DEHSPM dosing of 2.0 mg/kg/day for 29 days in dog(cu dose-52.4) and sacrificed at 10 days PLD(cu dose-58 mg/kg)", "format": "ADME, organism-based, Canis lupus familiaris", "details": "in vivo, 240 h"}, "Canis familiaris [17]": {"system": "Canis familiaris", "test": "Distribution in liver was determined after DESPM dosing of 6.0 mg/kg/day for 4.5 days in dog(cu dose-52.4) and sacrificed at 10 days PLD(cu dose-27 mg/kg)", "format": "ADME, organism-based, Canis lupus familiaris", "details": "in vivo, 240 h"}, "Canis familiaris [18]": {"system": "Canis familiaris", "test": "HSPM Distribution in kidney was determined after DEHSPM dosing of 2.0 mg/kg/day for 29 days in dog(cu dose-52.4) and sacrificed at 10 days PLD(cu dose-22 mg/kg)", "format": "ADME, organism-based, Canis lupus familiaris", "details": "in vivo, 240 h"}, "Canis familiaris [19]": {"system": "Canis familiaris", "test": "HSPM Distribution in liver was determined after DEHSPM dosing of 2.0 mg/kg/day for 29 days in dog(cu dose-52.4) and sacrificed at 10 days PLD(cu dose-58 mg/kg)", "format": "ADME, organism-based, Canis lupus familiaris", "details": "in vivo, 240 h"}, "Canis familiaris [20]": {"system": "Canis familiaris", "test": "MESPM/MEHSPH Distribution in kidney was determined after DEHSPM dosing of 2.0 mg/kg/day for 29 days in dog(cu dose-52.4) and sacrificed at 10 days PLD(cu dose-22 mg/kg)", "format": "ADME, organism-based, Canis lupus familiaris", "details": "in vivo, 240 h"}, "Canis familiaris [21]": {"system": "Canis familiaris", "test": "MESPM/MEHSPH Distribution in liver was determined after DEHSPM dosing of 2.0 mg/kg/day for 29 days in dog(cu dose-52.4) and sacrificed at 10 days PLD(cu dose-58 mg/kg)", "format": "ADME, organism-based, Canis lupus familiaris", "details": "in vivo, 240 h"}, "Canis familiaris [22]": {"system": "Canis familiaris", "test": "Distribution in kidney was determined after DESPM dosing of 1.87 mg/kg/day for 28 days in dog(cu dose-52.4) and sacrificed at 10 days PLD(cu dose-52.4 mg/kg)", "format": "ADME, organism-based, Canis lupus familiaris", "details": "in vivo, 240 h"}}, "note": "Values joined by “and” are separate entries in the source; they are usually repeats but may differ in a detail not shown here. Identical values can stand only once.", "data": [{"compound": "CCNCCCNCCCCNCCCNCC", "note": "[BIS(ETHYL)SPERMINE]", "values": [{"measurement": "Wet weight of tissue", "setting": "Canis familiaris [1]", "result": 784, "unit": "nM/g"}, {"measurement": "Wet weight of tissue", "setting": "Canis familiaris [2]", "result": 886, "unit": "nM/g"}, {"measurement": "Wet weight of tissue", "setting": "Canis familiaris [3]", "result": 87, "unit": "nM/g"}, {"measurement": "Wet weight of tissue", "setting": "Canis familiaris [4]", "result": 60, "unit": "nM/g"}, {"measurement": "Wet weight of tissue", "setting": "Canis familiaris [5]", "result": 1058, "unit": "nM/g"}, {"measurement": "Wet weight of tissue", "setting": "Canis familiaris [6]", "result": 21, "unit": "nM/g"}, {"measurement": "Wet weight of tissue", "setting": "Canis familiaris [7]", "result": 176, "unit": "nM/g"}, {"measurement": "Wet weight of tissue", "setting": "Canis familiaris [8]", "result": 264, "unit": "nM/g"}, {"measurement": "Wet weight of tissue", "setting": "Canis familiaris [9]", "result": 540, "unit": "nM/g"}, {"measurement": "Wet weight of tissue", "setting": "Canis familiaris [10]", "result": 7, "unit": "nM/g"}, {"measurement": "Reduction", "setting": "Rattus norvegicus [11]", "result": "66% and 92%"}, {"measurement": "Reduction", "setting": "Rattus norvegicus [12]", "result": "55% and 92%"}, {"measurement": "Stool output", "setting": "Rattus norvegicus [13]", "result": "7.5 g (350g of rat weight)-1"}, {"measurement": "Wet weight of tissue", "setting": "Canis familiaris [14]", "result": 101, "unit": "nM/g"}]}, {"compound": "CCNCCCCNCCCCNCCCCNCC", "note": "[DIETHYLHOMOSPERMINE]", "values": [{"measurement": "Wet weight of tissue", "setting": "Canis familiaris [15]", "result": 5, "unit": "nM/g"}, {"measurement": "Wet weight of tissue", "setting": "Canis familiaris [16]", "result": 41, "unit": "nM/g"}, {"measurement": "Wet weight of tissue", "setting": "Canis familiaris [17]", "result": 30, "unit": "nM/g"}, {"measurement": "Wet weight of tissue", "setting": "Canis familiaris [18]", "result": 43, "unit": "nM/g"}, {"measurement": "Wet weight of tissue", "setting": "Canis familiaris [19]", "result": 751, "unit": "nM/g"}, {"measurement": "Wet weight of tissue", "setting": "Canis familiaris [20]", "result": 3, "unit": "nM/g"}, {"measurement": "Wet weight of tissue", "setting": "Canis familiaris [21]", "result": 72, "unit": "nM/g"}, {"measurement": "Wet weight of tissue", "setting": "Canis familiaris [22]", "result": 50, "unit": "nM/g"}]}]}
